Data as given in patent US20240335402A1, “BIODEGRADABLE ANTI-INFECTIVE FORMULATIONS” (New Mexico Tech University Research Park Corporation, priority 2023, published 2024).

Tested on: colistin (polymyxin E, or PME) resistant bacterium S. maltophilia
Assay: Spot test on lawn of colistin resistant bacterium
Type: cell-based
Settings: 10 μL spotted, 37° C., 2 days

SMILES: O=C(O)CC[C@@H](C(=O)O)N(CC(=O)O)CC(=O)O [GLDA, N,N-Dicarboxymethyl glutamic acid]
- activity / kill of S. maltophilia lawn: did not work as well as CTAC
